Experimental data published in publication PMC2600596 (European journal of pharmacology, 2008).

Columns and labels:
[1] = target: T1, hMOR (human mu opioid receptor) (Homo sapiens, UniProt P35372); format: binding
hMOR = settings: pH 7.5; cited from earlier work
mu opioid receptor = format: binding; settings: whole CHO cells, data not shown
[2] = target: T1, hMOR (human mu opioid receptor); format: cell-based

T1 sequence (P35372 whole entry): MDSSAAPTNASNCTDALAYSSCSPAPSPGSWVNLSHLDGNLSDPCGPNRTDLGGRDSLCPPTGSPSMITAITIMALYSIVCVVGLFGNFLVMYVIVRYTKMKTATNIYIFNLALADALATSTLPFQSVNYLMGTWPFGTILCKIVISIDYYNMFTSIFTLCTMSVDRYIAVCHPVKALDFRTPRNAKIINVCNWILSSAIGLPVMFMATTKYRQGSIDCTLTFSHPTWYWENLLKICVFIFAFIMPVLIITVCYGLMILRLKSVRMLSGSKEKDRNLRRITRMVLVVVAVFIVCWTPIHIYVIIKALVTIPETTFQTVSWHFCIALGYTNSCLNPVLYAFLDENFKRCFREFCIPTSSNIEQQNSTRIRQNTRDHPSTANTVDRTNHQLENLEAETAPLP

In the case of `COC(=O)/C=C/C(=O)N[C@@H]1CC[C@@]2(O)[C@H]3Cc4ccc(O)c5c4[C@@]2(CCN3CC2CC2)[C@H]1O5` [β-FNA, β-funaltrexamine], the “Hill Slope” value [1] is given as −1.01, the Ki ([1]; pH 7.4) is given as 1.85 nM and the Ki (hMOR) is given as 0.3 nM.

In the case of `C=CC[N+]1(C)CC[C@]23c4c5ccc(O)c4O[C@H]2C(=O)CC[C@@]3(O)[C@H]1C5` (stereo partly shown) [naloxone methiodide], the “[3H]-naloxone radioligand binding displaced” value (mu opioid receptor) is reported as “More than 94%”.

For `Oc1ccc2c3c1O[C@H]1c4[nH]c5c(c4C[C@@]4(O)[C@@H](C2)N(CC2CC2)CC[C@]314)C[C@@]1(O)[C@H]2Cc3ccc(O)c4c3[C@@]1(CCN2CC1CC1)[C@H]5O4` [nor-BNI, nor-binaltorphimine], the “Hill Slope” value [1] is listed as −0.99 and the Ki (hMOR) is listed as 21 nM.

In the case of `C[C@@H](NC(=O)[C@@H](N)Cc1ccc(O)cc1)C(=O)NCC(=O)N(C)[C@@H](Cc1ccccc1)C(=O)NCCO` [DAMGO, [D-Ala^2, N-Me-Phe^4, Gly^5-ol]-enkephalin], the “Hill Slope” value [1] is reported as −0.85 and the “Imax (maximum percent inhibition of [3H]-cAMP accumulation)” value [2] is reported as 88.8%.

In the case of `Oc1ccc2c3c1O[C@H]1c4[nH]c5ccccc5c4C[C@@]4(O)[C@@H](C2)N(CC2CC2)CC[C@]314` [Naltrindole, naltrindole], the “Hill Slope” value [1] is listed as −0.99 and the Ki (hMOR) is listed as 6.3 nM.
